According to patent US5846516A, “Perfluoroalkylated amphiphilic phosphorus compounds: preparation and biomedical applications” (Alliance Pharmaceutial Corp., priority 1992, dated 1998):
Like-named read-outs stand apart in the source and are kept apart here.

Legend:
[1] = Ageing of sonicated perfluorodecalin (FDC 50% w/v) emulsions at 40° C., average particle size; format: physicochemical; settings: FIG. 5; 50% w/v PFD sterilized emulsions, 3% surfactant
Method: (§1) The products described in this invention, used as surfactants or co-surfactants, allow the preparation and stabilization of fluorocarbon emulsions. The emulsions were prepared by sonification (BRANSON B30 sonicator) (for 50% w/v of fluorocarbon) or by high-pressure microfluidization ((MICROFLUIDICS M 110)) (for more concentrated fluorocarbon emulsions). The ageing of these emulsions at 40° C. (accelerated ageing conditions) was followed by measuring the average size of the particles by a photosedimentation method (HORIBA CAPA 500) and compared with reference emulsions prepared with natural egg-yolk lecithins or poloxamers, for example Pluronic F-68.
To prepare 12 mL of an emulsion of FDC (50% w/v) with 3% w/v of 7b, the surfactant (360 mg) was first sonicated in a rosette cell at 0° C., in 8.55 mL of water. Next, the FDC (6 g) was added and the whole is sonicated, until optimal average particle size and size distribution are obtained. The emulsion was then divided into aliquots, stocked under inert atmosphere, sterilized for 8 min at 121° C. in an autoclave, then stored at 40° C. and monitored over time.
The same process but with a mixture of surfactants composed of 120 mg of 7b and 240 mg of natural egg-yolk lecithins (EYP) gave FDC emulsion with the following average particle sizes: 0.15 μm on preparation, 0.21 μm after sterilization and 0.32 μm after 30 days at 40° C. […]

[2] = format: physicochemical; settings: 90% w/v PFOB
Method: as §1
To prepare 40 mL of a 90% w/v PFOB emulsion, surfactant 7b (400 mg) was first dispersed in 19.6 mL of a phosphate buffer with an Ultra Turrax. PFOB (36 g) was then added slowly and the whole was mixed for 10 min at 24000 revolutions/min. The resulting pre-emulsion was transferred into a microfluidizer and emulsified for 1 min at 800-1000 bar.
This emulsion was prepared as for example 28 with 200 mg of 7b and 1.4 g of EYP for 35 g of PFOB.

[3] = Growth and viability of Namalva cell cultures; format: cell-based; settings: human; for activity: namalva cells; for viability: Namalva cells
mice = experiment: Toxicity in mice after intravenous injection (LD50, survival); format: in vivo; settings: for Toxicity in mice, Survival: i.v.
Method: (§2) Compound 22 is non-hemolytic at a 50 g/L concentration, and its LD50 is higher than 2000 mg/kg in intravenous injection into mice. […] Furthermore, these derivatives show a higher i.v. tolerance than the single-chain compounds disclosed in WO 90/15807 C (25 ≤LD50 ≤125 mg/kg bw).

[4] = Hemolysis of red blood cells; format: cell-based, human; settings: human, read-out: Hemolysis, % hem.
Method: as §2
(§3) *solution added to an equal volume of a suspension, at 1% concentration o
(§4) washed red blood cells in saline.

human red blood cells = experiment: Hemolysis of red blood cells; format: cell-based
Method: as §2, §3, §4

[5] = Surface activity of aqueous solutions: surface (γs) and interfacial (γi) tensions; format: physicochemical; settings: 20° C., ±0.3 mNm^-1
From the text: The compounds described in this invention are very efficient surface agents, greatly lowering the surface (γs) and interfacial (γi) tensions between water and a fluorocarbon when added to water. […], γs goes from 73 (pure water) to 19.7-33.8 mNm^-1, and γi [water/perfluorodecalin (FDC) or perfluorooctyl bromide (PFOB) ] goes from 56 and 51 (in the absence of surfactant) to 5.1-8.9 mNm^-1 and 4.7-10.5 mNm^-1 respectively, as illustrated by the examples assembled in the table below. These compounds are also characterized by low values of critical micellar concentration: (CMC:from 1.10^-6 to 1.7.10^-3 M).
(§5) Surface Activity Data of Aqueous Solutions

[6] = Critical micellar concentration (CMC); format: physicochemical; settings: aqueous solutions, 20° C.
From the text: The compounds described in this invention are very efficient surface agents, greatly lowering the surface (γs) and interfacial (γi) tensions between water and a fluorocarbon when added to water. Thus at 1 g/L in water, γs goes from 73 (pure water) to 19.7-33.8 mNm^-1, and γi [water/perfluorodecalin (FDC) or perfluorooctyl bromide (PFOB) ] goes from 56 and 51 (in the absence of surfactant) to 5.1-8.9 mNm^-1 and 4.7-10.5 mNm^-1 respectively, as illustrated by the examples assembled in the table below. These compounds are also characterized by low values of critical micellar concentration: (CMC:from 1.10^-6 to 1.7.10^-3 M).
as §5

[7] = Toxicity in mice after intravenous injection (LD50, survival); format: in vivo; settings: mouse, in vivo; intravenous injection into mice
Method: as §2

[8] = Dispersibility in water at 25° C.

**Q.** For `O=P(O)(OCCC(F)(F)C(F)(F)C(F)(F)C(F)(F)C(F)(F)C(F)(F)C(F)(F)C(F)(F)F)OC[C@H]1OC(O)[C@H](O)[C@@H](O)[C@@H]1O` (stereo partly drawn) [Compound 7b, [2-(F-octyl)ethyl](6-D-glucosyl)(sodium)phosphate], which “ageing at 40° C. of perfluorodecalin emulsions (in words)” value [1] is on record?
**A.** superimposable

**Q.** And the “stability of PFOB emulsion vs. EYP emulsion (in words)” value ([2]; FIG. 6, 1% w/v 7b vs 4% EYP, 40° C.)?
**A.** more stable than an emulsion containing 4% of EYP

**Q.** And the “co-surfactant effect with EYP on particle size and stabilization (in words)” value ([2]; FIG. 7, 1/8th of 4% EYP replaced by 7b)?
**A.** significantly reduces the average particle size and causes strong stabilization

**Q.** And the activity ([3]; 1 g/L)?
**A.** 76%

**Q.** And the viability ([3]; 1 g/L)?
**A.** 104%

**Q.** What about the “Toxicity in mice, Survival” value (mice; dose 125 (mg/kg)) of the same molecule?
**A.** 10/10

**Q.** And the hemolysis ([4]; 30 g/L, dispersed in a 20 g/L Pluronic F68 solution, added to an equal volume of 1% washed red blood cells in saline)?
**A.** 0%

**Q.** What about the “hemolytic effect (in words)” value (human red blood cells; dispersion at 30 g/L in 20 g/L Pluronic F-68) of the same molecule?
**A.** no hemolytic effect

**Q.** Which “Dispersibility at 25° C., g/L in water” value does the source give for “[5-(F-octyl)pentyl] bis [polyethylene glycol methyl ether] phosphate triester 21, n=7 [Compound 21]” here?
**A.** > 100 g/L

**Q.** And the “Toxicity in mice, Survival” value (mice; dose 500 (mg/kg))?
**A.** 10/10

**Q.** And the “Toxicity in mice, Survival” value (mice; dose 1000 (mg/kg))?
**A.** 3/10

**Q.** And the “γi /FDC (interfacial tension water/perfluorodecalin)” value ([5]; 0.01 g/L (0.008 mM) in water)?
**A.** 9.6 mNm^-1

**Q.** And the “γi /PFOB (interfacial tension water/perfluorooctyl bromide)” value ([5]; 0.01 g/L (0.008 mM) in water)?
**A.** 7.5 mNm^-1

**Q.** What about the “γs (surface tension)” value ([5]; 0.01 g/L (0.008 mM) in water) of the same molecule?
**A.** 29.6 mNm^-1

**Q.** What about the “CMC” value [6] of the same molecule?
**A.** 0.001 mM

**Q.** Which results are given for “[5-(F-octyl)pentyl] bis [polyethylene glycol methyl ether] phosphate triester 22, n=16 [Compound 22]”?
**A.** Toxicity in mice, Survival (mice; dose 2000 (mg/kg)): 10/10; LD50 (mice; intravenous injection into mice): higher than 2000 mg/kg; in vivo (i.v.) tolerance (in words) (mice; intravenous, mice): in vivo tolerance increases from 21 to 22; hemolytic activity (in words) (human red blood cells; 50 g/L): non-hemolytic

**Q.** Which “Dispersibility at 25° C., g/L in water” value does the source give for “[2-(F-octyl)ethyl] bis [polyethylene glycol methyl ether] phosphate triester 20, n=7 [Compound 20]” here?
**A.** > 100 g/L

**Q.** What about the “γi /FDC (interfacial tension water/perfluorodecalin)” value ([5]; 0.1 g/L (0.083 mM) in water) of the same molecule?
**A.** 13.1 mNm^-1

**Q.** What about the “γi /PFOB (interfacial tension water/perfluorooctyl bromide)” value ([5]; 0.1 g/L (0.083 mM) in water) of the same molecule?
**A.** 9.2 mNm^-1

**Q.** And the “γs (surface tension)” value ([5]; 0.1 g/L (0.083 mM) in water)?
**A.** 33.8 mNm^-1

**Q.** And the “CMC” value [6]?
**A.** 0.025 mM

**Q.** For `O=P(O)(OCCC(F)(F)C(F)(F)C(F)(F)C(F)(F)C(F)(F)C(F)(F)F)OC[C@H]1OC(O)[C@H](O)[C@@H](O)[C@@H]1O` (stereo partly drawn) [Compound 7a, [2-(F-hexyl)ethyl](6-D-glucosyl)(sodium)phosphate], which activity ([3]; 0.1 g/L) is on record?
**A.** 82%

**Q.** And the activity ([3]; 1 g/L)?
**A.** 51%

**Q.** And the viability ([3]; 1 g/L)?
**A.** 97%

**Q.** And the “Toxicity in mice, Survival” value (mice; dose 750 (mg/kg))?
**A.** 4/10

**Q.** What about the LD50 [7] of the same molecule?
**A.** ~750 mg/kg

**Q.** And the “γi /FDC (interfacial tension water/perfluorodecalin)” value ([5]; 1 g/L in water)?
**A.** 5.6 mNm^-1

**Q.** What about the “γi /PFOB (interfacial tension water/perfluorooctyl bromide)” value ([5]; 1 g/L in water) of the same molecule?
**A.** 4.7 mNm^-1

**Q.** And the “γs (surface tension)” value ([5]; 1 g/L in water)?
**A.** 19.7 mNm^-1

**Q.** What about the solubility [8] of the same molecule?
**A.** 350 mg/mL

**Q.** And the “CMC” value [6]?
**A.** 1.55 mM

**Q.** And the hemolysis ([4]; 100 g/L, solution added to an equal volume of 1% washed red blood cells in saline)?
**A.** 0%

**Q.** What about the “hemolytic activity (in words)” value (human red blood cells; even at 100 g/L) of the same molecule?
**A.** no hemolytic activity

**Q.** Which results are given for `O=P(O)(OCCC(F)(F)C(F)(F)C(F)(F)C(F)(F)C(F)(F)C(F)(F)C(F)(F)C(F)(F)F)O[C@H]1[C@H](O)[C@@H](CO)OC(O)[C@@H]1O` (stereo partly drawn) [Compound 8b, [2-(F-octyl)ethyl] (3-D-glucosyl)(sodium) phosphate]?
**A.** ageing at 40° C. of perfluorodecalin emulsions (in words) [1]: superimposable; γi /FDC (interfacial tension water/perfluorodecalin) ([5]; 1 g/L in water): 5.6 mNm^-1; γi /PFOB (interfacial tension water/perfluorooctyl bromide) ([5]; 1 g/L in water): 8.3 mNm^-1; γs (surface tension) ([5]; 1 g/L in water): 27.5 mNm^-1; solubility [8]: 250 mg/mL; CMC [6]: 1.68 mM
